The results in this text go back to publication PMC6406907, “A H2AX–CARP-1 Interaction Regulates Apoptosis Signaling Following DNA Damage” (Cancers, 2019).

No end group written: not given here.

For assay [1], the system named is caspases-3, -8, -9, and -2. Kind of assay: Caspase activity, ApoAlert Caspase profiling plate, MDA-MB-468 sublines. In kind it is cell-based, human. As to conditions: for caspase-3 activation in EGFP-peptide-expressing cells: MDA-MB-468 sublines vs EGFP vector subline, Figure 7E,F. An excerpt:
Our next objective was to analyze the biological significance of the CARP-1–H2AX interaction in cells. For this purpose, we utilized MDA-MB-468 and HeLa cell lines that stably express myc-His-tagged wild-type CARP-1 or CARP-1 (Δ600–650)-myc-His proteins as detailed in Figure S4 (Supplementary Materials). These sublines were then either untreated (Control, DMSO), or treated with Adriamycin or CFM-4 compound. […] Next, we measured activation of caspases as an apoptosis readout in cells expressing myc-His-tagged wild-type CARP-1 or CARP-1 (Δ600–650) proteins that were either untreated or treated with Adriamycin or CFM compounds as detailed in Section 2. We utilized a lower, 4–5 μM dose of Adriamycin or CFM compounds because a 10 μM Adriamycin dose caused interference in signal output/readout in this particular assay, likely due to background fluorescence that is emitted by higher dose of Adriamycin. Although Adriamycin has a maximum excitation and emission wavelength of 470 and 560 nm, respectively, we found significant fluorescence emission in cells treated with 10 μM Adriamycin at a 380-nm excitation wavelength. Moreover, since caspase activation precedes apoptotic cell death, we utilized a lower dose of Adriamycin to permit a robust measurement of optimal caspase activation in cells undergoing moderate apoptosis with lower/minimal interference by Adriamycin-induced fluorescence signals. […] MDA-MB-468 or HeLa cells that express EGFP or EGFP-H2AX (1–35) were separately treated with Adriamycin, and presence of CARP-1 and γH2AX was determined by immuno-cytochemical staining followed by photography by a confocal microscope as described in Section 2. […]
Figure 7 Disruption of H2AX interaction with CARP-1 results in enhanced viabilities of CFM-4-, CFM-4.16-, or Adriamycin-treated cells in part due to reduced apoptosis. […] The fluorescence released from the activated caspase-dependent cleavage of respective substrate was detected by a plate reader at the excitation and emission wavelengths of 380 nm and 460 nm, respectively, as detailed in Section 2. […]

Assay [2] has as its system CARP-1, phospho-JNK1/2, phospho-H2AX, PARP. Kind of assay: Western blot of CARP-1, phospho-JNK1/2, γH2AX, cleaved PARP in MDA-MB-468. The note with it: for CARP-1 and γH2AX increase after knock-down of CARP-1: MDA-MB-468, CARP-1 knock-down; for JNK1/2 and H2AX activation: cells overexpressing myc-His-tagged CARP-1, WB. In kind it is cell-based, human.

Take “EGFP-CARP-1 (636–650): EGFP-tagged fusion protein stably expressed in MDA-MB-468 and HeLa sublines (PKTMKVNDLRKELES; also: EGFP fusion kept, end not given here)”: the “caspase-3 activation in EGFP-peptide-expressing cells” value in assay [1] was “overall reduction in activation of caspase-3”.
On the same count and under the same terms, as for “EGFP-H2AX (1–35): EGFP-tagged fusion protein stably expressed in MDA-MB-468 and HeLa sublines (MSGRGKTGGKARAKAKSRSSRAGLQFPVGRVHRLL; also: EGFP fusion, end not given here; UniProt P16104 1-35, looked up, fragment)”, the entry is “overall reduction in activation of caspase-3”.
In the case of `COc1cccc2c1C(=O)c1c(O)c3c(c(O)c1C2=O)C[C@@](O)(C(=O)CO)C[C@@H]3O[C@H]1C[C@H](N)[C@H](O)[C@H](C)O1` [Adriamycin, doxorubicin, reference compound], in assay [1] (4–5 μM, CARP-1 (Δ600–650) vs wild-type CARP-1-expressing cells, mean of two experiments, 380/460 nm), the “caspase activation in CARP-1 (Δ600–650) cells” value is “overall reduction in activation of caspases-3, -8, -9, and -2”. In assay [2], the “CARP-1 and γH2AX increase after knock-down of CARP-1” value was “abrogated CARP-1 and γH2AX increase”; the “JNK1/2 and H2AX activation” value is “time-dependent stimulation of JNK1/2 and H2AX activation”. Further, in assay [2] (MDA-MB-468, single agent (JNK-IN-8 at 5 μM), WB), the “levels of CARP-1” value was “elevated levels of CARP-1”.
Regarding `O=C1N(Cc2ccccc2Cl)c2ccccc2C12NN=C(c1cccc(Cl)c1)S2` (centres unmarked) [CFM-4.16], in assay [2], the “CARP-1 and γH2AX increase after knock-down of CARP-1” value was “abrogated CARP-1 and γH2AX increase”; the “JNK1/2 and H2AX activation” value is “time-dependent stimulation of JNK1/2 and H2AX activation”.
